# Data as given in ChEMBL document CHEMBL1201862, “PubChem BioAssay data set” (2004).
# Values joined by “and” are separate entries in the source; they are usually repeats but may differ in a detail not shown here. Equal entries are not always repeated. Active and inactive are the calls of the source. Unless noted, the calls are words filed in the database; no cut-off is given here.
# What was measured:
# [1] = biological target: Melanin-concentrating hormone receptor 1 (Homo sapiens, UniProt Q99705); experiment: Late-stage fluorescence-based counterscreen for antagonists of the G-protein coupled receptor 7 (GPR7): cell-based dose response assay to identify antagonists of the melanin-concentrating hormone receptor 1 (MCHR1) Set 5.; type: functional
# Melanin-concentrating hormone receptor 1, sequence (Q99705 whole entry): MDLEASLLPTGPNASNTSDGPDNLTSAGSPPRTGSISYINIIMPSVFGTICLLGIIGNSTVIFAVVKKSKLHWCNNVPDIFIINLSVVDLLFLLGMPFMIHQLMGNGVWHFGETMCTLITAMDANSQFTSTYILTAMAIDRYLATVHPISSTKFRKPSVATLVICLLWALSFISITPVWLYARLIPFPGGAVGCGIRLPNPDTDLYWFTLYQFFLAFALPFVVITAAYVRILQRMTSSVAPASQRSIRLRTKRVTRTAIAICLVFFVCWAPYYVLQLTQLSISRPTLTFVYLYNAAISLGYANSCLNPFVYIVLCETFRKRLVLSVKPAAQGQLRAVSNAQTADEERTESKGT
# [2] = biological target: Neuropeptides B/W receptor type 1 (Homo sapiens, UniProt P48145); experiment: GPR7 antagonist potency, late-stage follow-up, cell-based, fluorescence, dose response, set 5 (AID 588566); type: functional
# Neuropeptides B/W receptor type 1, sequence (P48145 whole entry): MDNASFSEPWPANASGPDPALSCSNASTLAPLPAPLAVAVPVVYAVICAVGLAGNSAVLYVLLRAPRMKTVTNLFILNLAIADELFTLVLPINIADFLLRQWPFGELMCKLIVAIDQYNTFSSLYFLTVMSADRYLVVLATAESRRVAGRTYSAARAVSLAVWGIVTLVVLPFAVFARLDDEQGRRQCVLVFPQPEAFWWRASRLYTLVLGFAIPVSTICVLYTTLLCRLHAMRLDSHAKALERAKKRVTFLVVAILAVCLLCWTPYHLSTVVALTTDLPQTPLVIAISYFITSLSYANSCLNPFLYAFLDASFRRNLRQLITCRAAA
# [3] = biological target: Luciferin 4-monooxygenase (Photinus pyralis, UniProt P08659); experiment: firefly luciferase enzyme inhibitors, dose response, biochemical, luminescence (AID 1891)
# Luciferin 4-monooxygenase, sequence (P08659 whole entry): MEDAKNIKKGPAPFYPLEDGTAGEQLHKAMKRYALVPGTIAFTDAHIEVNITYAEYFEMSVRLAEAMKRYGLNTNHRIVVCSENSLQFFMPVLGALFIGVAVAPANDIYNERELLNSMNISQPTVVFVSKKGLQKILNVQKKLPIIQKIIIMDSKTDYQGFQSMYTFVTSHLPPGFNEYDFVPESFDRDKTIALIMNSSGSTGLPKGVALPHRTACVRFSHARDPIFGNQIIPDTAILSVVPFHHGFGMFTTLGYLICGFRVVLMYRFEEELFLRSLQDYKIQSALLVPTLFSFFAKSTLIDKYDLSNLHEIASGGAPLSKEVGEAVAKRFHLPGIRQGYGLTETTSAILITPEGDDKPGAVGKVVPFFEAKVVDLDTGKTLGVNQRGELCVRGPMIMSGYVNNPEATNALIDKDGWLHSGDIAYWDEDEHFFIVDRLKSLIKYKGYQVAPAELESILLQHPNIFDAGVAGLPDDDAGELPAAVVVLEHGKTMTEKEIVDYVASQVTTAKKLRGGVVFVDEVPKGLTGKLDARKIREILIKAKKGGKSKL
# [4] = Luminescence Cell-Based Dose Confirmation HTS to Identify Inhibitors of Platelet Dense Granule Release. [Related pubchem assays: 1663 (Primary HTS), 1678 (Summary of Project)]; type: functional
# [5] = THP-1 cell cytotoxicity, cytotoxicity control, set 5 (AID 588443); type: functional
# [6] = Vero cell cytotoxicity, dose response, cytotoxicity control for M. tuberculosis inhibitor project, purified and synthesized compounds, set 6 (AID 588445); type: functional; conditions: Mycobacterium tuberculosis
# [7] = biological target: Wee1-like protein kinase (Homo sapiens, UniProt P30291); experiment: Navigating the Kinome. Panel member name: WEE1; type: functional
# Wee1-like protein kinase, sequence (P30291 whole entry): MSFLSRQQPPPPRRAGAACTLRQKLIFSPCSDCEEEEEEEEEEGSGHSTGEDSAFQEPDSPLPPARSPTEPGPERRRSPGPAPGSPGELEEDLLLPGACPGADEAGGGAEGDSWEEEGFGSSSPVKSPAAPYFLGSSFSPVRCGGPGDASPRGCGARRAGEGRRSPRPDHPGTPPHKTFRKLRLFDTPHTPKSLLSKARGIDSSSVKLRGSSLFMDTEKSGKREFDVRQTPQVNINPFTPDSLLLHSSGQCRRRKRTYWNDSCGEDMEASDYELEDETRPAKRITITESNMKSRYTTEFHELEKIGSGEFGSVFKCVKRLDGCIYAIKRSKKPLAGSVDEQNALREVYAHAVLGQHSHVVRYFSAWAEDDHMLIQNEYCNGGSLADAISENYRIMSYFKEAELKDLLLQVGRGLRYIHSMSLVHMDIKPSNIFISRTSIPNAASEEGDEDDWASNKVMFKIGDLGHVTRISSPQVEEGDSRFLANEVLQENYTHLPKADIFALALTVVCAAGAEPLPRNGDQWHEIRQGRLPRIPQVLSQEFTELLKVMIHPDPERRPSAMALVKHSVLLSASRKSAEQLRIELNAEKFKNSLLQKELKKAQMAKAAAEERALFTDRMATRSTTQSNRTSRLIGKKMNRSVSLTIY
# [8] = biological target: Cell division cycle 7-related protein kinase (Homo sapiens, UniProt O00311); type: functional;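 further: value obtained from a kinome-wide kinase panel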
# Cell division cycle 7-related protein kinase, sequence (O00311 whole entry): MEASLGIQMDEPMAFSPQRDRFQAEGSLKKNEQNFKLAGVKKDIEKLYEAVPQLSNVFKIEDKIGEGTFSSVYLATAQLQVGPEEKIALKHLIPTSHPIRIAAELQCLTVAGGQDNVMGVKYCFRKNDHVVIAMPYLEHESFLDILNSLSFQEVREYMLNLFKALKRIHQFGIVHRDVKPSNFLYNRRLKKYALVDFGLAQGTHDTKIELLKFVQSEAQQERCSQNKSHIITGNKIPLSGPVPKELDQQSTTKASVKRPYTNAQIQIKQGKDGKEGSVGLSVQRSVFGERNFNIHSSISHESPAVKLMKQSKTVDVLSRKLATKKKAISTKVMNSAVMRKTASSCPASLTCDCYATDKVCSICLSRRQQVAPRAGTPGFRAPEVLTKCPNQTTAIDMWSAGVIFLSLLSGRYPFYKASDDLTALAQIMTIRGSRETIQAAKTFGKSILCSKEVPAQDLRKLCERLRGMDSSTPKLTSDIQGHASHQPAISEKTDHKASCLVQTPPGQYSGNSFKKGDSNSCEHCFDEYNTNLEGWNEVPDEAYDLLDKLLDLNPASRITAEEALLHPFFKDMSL
# [9] = biological target: Scavenger receptor class B member 1 (Mus musculus, UniProt Q61009); experiment: inhibitors of SR-BI-mediated HDL uptake, dose response, cell-based, ldlA[mSR-BI] CHO, DiI fluorescence, dry powder, set 10 (AID 624029); type: functional
# Scavenger receptor class B member 1, sequence (Q61009 whole entry): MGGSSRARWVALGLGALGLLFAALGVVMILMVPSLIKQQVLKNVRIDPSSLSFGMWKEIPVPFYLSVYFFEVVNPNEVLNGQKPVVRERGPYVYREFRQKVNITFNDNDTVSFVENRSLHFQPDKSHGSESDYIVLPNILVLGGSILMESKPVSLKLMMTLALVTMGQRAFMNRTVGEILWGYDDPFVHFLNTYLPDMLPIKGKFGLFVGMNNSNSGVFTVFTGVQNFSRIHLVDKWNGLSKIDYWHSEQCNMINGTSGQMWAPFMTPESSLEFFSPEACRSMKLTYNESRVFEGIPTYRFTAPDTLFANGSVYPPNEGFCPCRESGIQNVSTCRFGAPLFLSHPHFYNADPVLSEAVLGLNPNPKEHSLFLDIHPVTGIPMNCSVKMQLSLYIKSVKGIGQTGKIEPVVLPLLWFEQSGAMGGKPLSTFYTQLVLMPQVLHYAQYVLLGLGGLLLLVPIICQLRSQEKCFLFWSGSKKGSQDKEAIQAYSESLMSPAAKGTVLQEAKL
# [10] = biological target: Protein disulfide-isomerase (Homo sapiens, UniProt P07237); experiment: PDI inhibitors, insulin aggregation turbidity, dose response, biochemical, absorbance, cherry-picked samples (AID 602350); type: functional
# Protein disulfide-isomerase, sequence (P07237 whole entry): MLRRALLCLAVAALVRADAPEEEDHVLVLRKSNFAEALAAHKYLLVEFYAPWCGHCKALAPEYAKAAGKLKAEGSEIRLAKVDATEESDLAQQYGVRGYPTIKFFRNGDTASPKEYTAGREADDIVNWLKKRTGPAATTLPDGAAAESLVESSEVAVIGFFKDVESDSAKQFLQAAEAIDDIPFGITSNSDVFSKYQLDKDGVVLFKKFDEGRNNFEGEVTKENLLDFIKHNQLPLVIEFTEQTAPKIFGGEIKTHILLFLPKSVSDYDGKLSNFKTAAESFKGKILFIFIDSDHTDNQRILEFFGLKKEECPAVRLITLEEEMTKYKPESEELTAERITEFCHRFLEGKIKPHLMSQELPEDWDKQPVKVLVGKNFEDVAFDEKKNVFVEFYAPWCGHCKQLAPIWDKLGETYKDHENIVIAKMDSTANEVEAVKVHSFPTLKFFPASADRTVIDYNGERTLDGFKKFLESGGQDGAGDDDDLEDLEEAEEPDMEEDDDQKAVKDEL
# [11] = system: Candida albicans; experiment: growth inhibition of resistant C. albicans, dose response, CaCi-8, fluconazole, Alamar Blue, dry powder (AID 488807); type: functional, organism-based
# [12] = system: NIH3T3; experiment: cytotoxicity in NIH-3T3 fibroblasts, dose response, cytotoxicity control for antifungal drug resistance project, cell-based, Alamar Blue, fluconazole, dry powder (AID 488809); type: functional; conditions: Mus musculus
# [13] = system: Candida albicans; experiment: single-agent growth inhibition of C. albicans, dose response, counter-screen for antifungal drug resistance project, C. albicans CaCi-2, dry powder (AID 488802); type: functional, organism-based
smiles,measurement,setting,value
CCOC(=O)C(c1ccccn1)c1c(Cl)cnn(Cc2cccc3ccccc23)c1=O (stereo not drawn),IC50,[1],17.6 µM (inactive)
same,IC50,[2],> 20 µM (inactive)
O=C(NCCc1ccc(Cl)cc1)c1ccc(CNc2c(N3CCOCC3)c(=O)c2=O)cc1,EC50,[3],> 112 µM (not active)
same,EC50,[4],> 112 µM (not active)
same,CC50,[5],> 100 µM (active)
same,CC50,[6],> 100 µM (active)
c1cc(NC2CCCCC2)nc(Nc2ccc3cn[nH]c3c2)n1,Ki,[7],1 µM (active)
same,Ki,[8],2 µM (active)
C[C@@H]1CN([C@H](C)CO)C(=O)c2cc(NC(=O)Cc3cn(C)c4ccccc34)ccc2O[C@H]1CN(C)S(=O)(=O)c1ccc(F)cc1,AC50,[9],0.00202 µM (active)
same,AC50,[10],1.26 µM (active) and 16.4 µM (active)
COc1ccc(NC(=O)Cn2c3ccccc3c3nc4n(c(=O)c32)CCS4)cc1,AC50,[11],12.7 µM (active)
same,AC50,[12],34.2 µM (active)
same,AC50,[13],50.1 µM (active)
